Experiments:
EP2 [1] = target: T1, EP2 (Homo sapiens, UniProt P43116); test: EP2 Ca2+ EC50 (in vitro testing); format: cell-based
Text: (§1) U.S. patent application Ser. No. 11/553,143, filed on Oct. 26, 2006, describes the methods used to obtain the in vitro data in the tables below.

EP4 [2] = target: T2, EP4 (Homo sapiens, UniProt P35408); test: EP4 Ki (in vitro testing); format: binding; conditions: read-out: EP4 Ki EC50
Text: as §1

EP3 = target: T3, EP3 (Homo sapiens, UniProt P43115); test: Other receptors Ca2+ EC50: EP3; format: cell-based; conditions: NA not defined in the patent
T3 sequence (P43115 1-390): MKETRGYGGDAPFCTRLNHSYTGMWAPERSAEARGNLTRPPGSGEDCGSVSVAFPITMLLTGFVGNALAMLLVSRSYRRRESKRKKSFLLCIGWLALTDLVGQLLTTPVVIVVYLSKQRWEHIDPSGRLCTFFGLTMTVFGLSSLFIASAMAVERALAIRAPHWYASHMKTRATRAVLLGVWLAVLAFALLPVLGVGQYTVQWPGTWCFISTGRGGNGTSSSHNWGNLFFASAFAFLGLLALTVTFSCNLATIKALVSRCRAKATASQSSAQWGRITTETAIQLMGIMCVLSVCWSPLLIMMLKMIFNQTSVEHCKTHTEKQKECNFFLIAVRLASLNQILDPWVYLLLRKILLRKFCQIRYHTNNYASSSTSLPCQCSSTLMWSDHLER
Text: as §1

EP2 [3] = target: T1, EP2; test: EP2 Ki (in vitro testing); format: binding
Text: as §1

EP2 [4] = target: T1, EP2; test: EP2 cAMP EC50 (in vitro testing); format: cell-based
Text: as §1

EP4 [5] = target: T2, EP4; test: EP4 Ca2+ EC50 (in vitro testing); format: cell-based
Text: as §1

[6] = In vivo testing, Max. ΔIOP, Max. hyperemia
Text: (§2) U.S. Pat. No. 7,091,231 describes the methods used for these in vivo tests.

[7] = In vivo testing, Max. ΔIOP
Text: as §2

DP = target: T4, DP (Homo sapiens, UniProt Q13258); test: Other receptors Ca2+ EC50: DP; format: cell-based; conditions: NA not defined in the patent
T4 sequence (Q13258 1-359): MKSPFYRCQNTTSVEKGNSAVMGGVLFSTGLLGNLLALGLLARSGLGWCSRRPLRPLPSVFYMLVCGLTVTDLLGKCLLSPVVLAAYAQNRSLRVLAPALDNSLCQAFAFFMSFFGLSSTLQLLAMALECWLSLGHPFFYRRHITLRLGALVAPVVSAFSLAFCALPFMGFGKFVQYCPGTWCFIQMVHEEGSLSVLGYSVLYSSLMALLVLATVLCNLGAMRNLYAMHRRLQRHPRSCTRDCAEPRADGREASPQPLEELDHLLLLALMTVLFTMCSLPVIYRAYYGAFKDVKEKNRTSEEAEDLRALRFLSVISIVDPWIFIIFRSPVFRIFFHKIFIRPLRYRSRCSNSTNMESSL
Text: as §1

T1 sequence (P43116 whole entry): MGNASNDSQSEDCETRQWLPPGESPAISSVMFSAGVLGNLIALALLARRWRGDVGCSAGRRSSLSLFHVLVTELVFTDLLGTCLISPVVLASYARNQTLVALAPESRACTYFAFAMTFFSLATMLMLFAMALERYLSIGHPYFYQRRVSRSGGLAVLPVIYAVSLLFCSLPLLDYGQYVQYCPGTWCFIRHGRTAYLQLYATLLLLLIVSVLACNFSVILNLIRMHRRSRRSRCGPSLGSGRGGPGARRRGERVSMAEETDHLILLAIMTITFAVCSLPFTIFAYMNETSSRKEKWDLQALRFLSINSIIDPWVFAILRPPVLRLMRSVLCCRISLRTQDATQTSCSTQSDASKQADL
T2 sequence (P35408 whole entry): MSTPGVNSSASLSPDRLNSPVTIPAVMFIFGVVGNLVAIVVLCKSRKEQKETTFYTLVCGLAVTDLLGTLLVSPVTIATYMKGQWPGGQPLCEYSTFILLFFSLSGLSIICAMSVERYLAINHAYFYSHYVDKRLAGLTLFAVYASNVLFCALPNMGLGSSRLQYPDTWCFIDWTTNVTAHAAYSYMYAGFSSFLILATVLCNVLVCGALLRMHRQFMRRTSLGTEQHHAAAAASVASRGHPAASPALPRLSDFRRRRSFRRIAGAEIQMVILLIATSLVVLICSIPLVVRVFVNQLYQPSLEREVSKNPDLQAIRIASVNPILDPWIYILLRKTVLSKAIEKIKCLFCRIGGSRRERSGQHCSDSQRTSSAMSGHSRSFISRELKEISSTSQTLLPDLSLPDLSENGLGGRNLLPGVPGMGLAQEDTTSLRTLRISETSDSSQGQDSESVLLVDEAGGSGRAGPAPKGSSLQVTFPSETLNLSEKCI

| SMILES | EC50 (EP2 [1]) [µM] | Ki (EP4 [2]) [µM] | EC50 (EP3) [nM] | Ki (EP2 [3]) [µM] | EC50 (EP2 [4]) [µM] | EC50 (EP4 [5]) [µM] | other results |
| --- | --- | --- | --- | --- | --- | --- | --- |
| CCCCC[C@H](O)c1ccc(C2=C(Cl)CC[C@@H]2CCCc2ccc(C(=O)O)s2)cc1 | 0.355 | 3.68 | 1490 | 0.016 | 0.0006 | > 10 | – |
| CCCCC[C@@H](O)c1ccc(C2=C(Cl)CC[C@@H]2CCCc2ccc(C(=O)O)s2)cc1 | 0.083 | 0.914 | – | 0.005 | 0.0002 | > 10 | – |
| CCCCCC(O)c1ccc(C2=CCC[C@@H]2CCCc2ccc(C(=O)O)s2)cc1 (stereo partly drawn) | 0.019 | 1.18 | – | 0.005 | 0.0009 | > 10 | – |
| CCCCCC(O)c1ccc(C2=C(F)CC[C@@H]2CCCc2ccc(C(=O)O)s2)cc1 (stereo partly drawn) | 0.027 | > 10 | 1820 | 0.0024 | 0.0002 | 2.96 | – |
| CCCCCC(O)c1ccc(C2=C(C#N)CC[C@@H]2CCCc2ccc(C(=O)O)s2)cc1 (stereo partly drawn) | – | 0.175 | 8560 | 1.37 | 0.154 | – | – |
| CCCCCC(O)c1ccc(C2=C(C#N)CC[C@@H]2CCCc2ccc(C(=O)O)s2)cc1 (single isomer, unassigned) [Compound 3] | – | – | – | – | – | – | Max. hyperemia ([6]; Conc. 0.003 g/100 mL): 1.3; Max. ΔIOP (%) ([6]; Conc. 0.003 g/100 mL): 35%; Max. ΔIOP (%) ([7]; Conc. 0.003 g/100 mL): 46% |
| CCCCCC(O)c1ccc(C2=C(C#N)CC[C@@H]2CCCc2ccc(C(=O)O)s2)cc1 (single isomer, unassigned) [Compound 4] | – | – | – | – | – | – | Max. hyperemia ([6]; Conc. 0.003 g/100 mL): 1.4; Max. ΔIOP (%) ([6]; Conc. 0.003 g/100 mL): 35%; Max. ΔIOP (%) ([7]; Conc. 0.003 g/100 mL): 39% |
| CCCCCC(O)c1ccc(C2=C(C#N)CC[C@@H]2CCCc2ccc(C(=O)O)s2)cc1 (single isomer, unassigned) [drawing 84] | 0.074 | > 10 | 3540 | 0.005 | 0.00045 | 2.8 | – |
| CCCCCC(O)c1ccc(C2=C(C#N)CC[C@@H]2CCCc2ccc(C(=O)O)s2)cc1 (single isomer, unassigned) [drawing 85] | 0.065 | 16 | 202 | 0.003 | 0.0004 | 3.35 | – |
| CCCCCC(O)c1ccc(C2=C(Cl)CC[C@@H]2CCCc2ccc(C(=O)O)s2)cc1 (stereo partly drawn) [Compound 1] | – | – | – | – | – | – | Max. hyperemia ([6]; Conc. 0.01 g/100 mL): 1.7; Max. ΔIOP (%) ([6]; Conc. 0.01 g/100 mL): 39%; Max. ΔIOP (%) ([7]; 0.1% dose): 62 (0.1% dose) |
| CCCCCC(O)c1ccc(C2=C(Cl)CC[C@@H]2CCCc2ccc(C(=O)OC(C)C)s2)cc1 (stereo partly drawn) [Compound 2] | – | – | – | – | – | – | Max. hyperemia ([6]; Conc. 0.1 g/100 mL): 1.7; Max. ΔIOP (%) ([6]; Conc. 0.1 g/100 mL): 21%; Max. ΔIOP (%) ([7]; 0.1% dose): 26% |
| CCCCCC(O)c1ccc(C2=C(C#N)CC[C@@H]2CCCc2ccc(C(=O)OCCO)s2)cc1 (stereo partly drawn) [Compound 5] | – | – | – | – | – | – | Max. hyperemia ([6]; Conc. 0.01 g/100 mL): 1.9; Max. ΔIOP (%) ([6]; Conc. 0.01 g/100 mL): 41%; Max. ΔIOP (%) ([7]; Conc. 0.01 g/100 mL): 53% |
| CCCCC[C@H](O)c1ccc(C2=CCC[C@@H]2CCCc2ccc(C(=O)O)s2)cc1 [Compound 6] | – | – | – | – | – | – | Max. hyperemia ([6]; Conc. 0.01 g/100 mL): 2.0; Max. ΔIOP (%) ([6]; Conc. 0.01 g/100 mL): 32%; Max. ΔIOP (%) ([7]; Conc. 0.01 g/100 mL): 31% |
| CCCCC[C@@H](O)c1ccc(C2=CCC[C@@H]2CCCc2ccc(C(=O)O)s2)cc1 [Compound 7] | – | – | – | – | – | – | Max. hyperemia ([6]; Conc. 0.01 g/100 mL): 1.8; Max. ΔIOP (%) ([6]; Conc. 0.01 g/100 mL): 37% |
| CCCCCC(O)c1ccc(C2=C(Br)CC[C@@H]2CCCc2ccc(C(=O)O)s2)cc1 (stereo partly drawn) [drawing 79] | 0.403 | 0.966 | 2340 | 0.0015 | 0.0004 | > 10 | – |
| CCCCCC(O)c1ccc(C2=C(CO)CC[C@@H]2CCCc2ccc(C(=O)O)s2)cc1 (stereo partly drawn) [drawing 81] | 0.119 | 1.54 | 6980 | 0.053 | 0.048 | > 10 | – |
| CCCCCC(O)c1ccc(C2=C(O)C(=O)C[C@@H]2C/C=C\CCCC(=O)O)cc1 (stereo partly drawn) [drawing 82] | 0.442 | 0.785 | 9640 | 0.313 | 0.054 | > 10 | – |
| CCCCCC(O)c1ccc(C2C(Br)=CC[C@@H]2CCCc2ccc(C(=O)O)s2)cc1 (stereo partly drawn) [drawing 83] | 0.847 | 0.522 | 3220 | 0.005 | 0.0007 | > 10 | – |
| CCCCC[C@H](O)c1ccc(C2=CCC[C@@H]2CCCc2ccc(C(=O)O)s2)cc1 [drawing 86] | 0.027 | – | 3090 | 0.018 | 0.001 | – | EC50 (DP): 7740 nM |
| CCCCC[C@@H](O)c1ccc(C2=CCC[C@@H]2CCCc2ccc(C(=O)O)s2)cc1 [drawing 87] | 0.036 | 16.3 | 5890 | 0.01 | 0.0008 | – | EC50 (DP): 9920 nM |
| CCCCCC(O)c1ccc(C2=C(C)CC[C@@H]2CCCc2ccc(C(=O)O)s2)cc1 (stereo partly drawn) [drawing 88] | 0.193 | > 10 | 7340 | 0.016 | 0.004 | 0.955 | – |

From patent publication US9796696B2, “Substituted arylcyclopentenes as therapeutic agents” (Allergan, Inc., priority 2007, dated 2017)
